In patent US20230158152A1, “PROTEOLYSIS REGULATOR AND METHOD FOR USING SAME” (MEDSHINE DISCOVERY INC., priority 2020, published 2023):
Where a name gives a salt, the structure may show the parent alone.

Experiments:
[1] = tested on: human acute myeloid leukemia cell MV4-11; experiment: Anti-proliferative effect in human acute myeloid leukemia cell MV4-11 (CellTiter-Glo); assay type: cell-based; conditions: MV4-11, 96 h, cell proliferation, incubated for 4 days
Protocol: In this assay, the inhibitory effect of assay compounds on cell proliferation in human acute myeloid leukemia cell MV4-11 was detected by ATP fluorescence activity detection (CellTiter-Glo).
(§1) (1) Promega CellTiter-Glo luminescent cell viability assay kit (Promega-G7573). (2) 2104 EnVision® plate reader, PerkinElmer.
(§2) The tumor cell line was cultured in a 37° C., 5% CO2 incubator according to the above-mentioned culture conditions. Cells were passaged periodically, and cells in logarithmic growth phase were used for plating.
(1). Cells were stained with trypan blue and viable cells were counted; (2). The cell concentration was adjusted to an appropriate concentration; (3). 90 μL of cell suspension was added to each well of the culture plate, and each well contained 6000 cells. In the blank group and other wells, no cells were inoculated, and only 90 μL of culture medium was added; (4). The plate was incubated in an incubator at 37° C., 5% CO2, and 100% relative humidity overnight.
(1) Formulation of 10× drug solution: A sterile round bottom 96-well plate was used, and the concentration of mother solutions of WX007, WX008, WX009, WX010, WX011 and WX012 was 10 mM. 5 μL of compound was added to the first well with 5 μL of 1640 medium, and mixed well to obtain a concentration of 5 mM. 5 μL of compound from the first well was added to the third well containing 45 μL of 1640 medium and mixed well to obtain a concentration of 500 μM. 5 μL of compound from the third well was added to the fourth well containing 45 μL of 1640 medium and mixed well to obtain a concentration of 50 μM. 20 μL of compound from the fourth well was added to the fifth well containing 180 μL of 1640 medium and mixed well to obtain 5 μM mother solution. Another sterile round bottom 96-well plate was used, and 60 μL of 5 μM compound was added to the first well. 30 μL of 5 μM compound was added to the second well with 60 μL of 1640 medium, and so forth. Compounds were serially diluted 3-fold to obtain a total of 9 concentrations. To the blank control was added an equal volume of DMSO in the same dilution way.
(2) Formulation of drug solution with the final concentration: 10 μL of the 10× drug solution as prepared above was added to 90 μL of culture medium in triplicate. To the control group was added an equal volume of DMSO solution, and the cell plate was flicked, so that the solution was mixed well. To the blank group was added 10 μL of 1640 medium. The plate was gently taped, so that the solution was mixed well. The plate was placed back in 37° C., 5% CO2 incubator and incubated for 4 days.
(1) Formulation of the drug solution: A sterile round-bottom 96-well plate was used, and the stock concentration of each compound was 10 mM. 2 μL of compound in 18 μL of DMSO was added to the first well and the mixture was mixed well to obtain a concentration of 1 mM; 10 μL of compound from the first well was added to the third well containing 90 μL of 1640 medium and the mixture was mixed well to obtain a concentration of 100 μM;
(2) For WX058, WX059, WX060 and WX042, 12 μL of solution from the third well obtained above was added to the fourth well containing 108 μL of 1640 medium and the mixture was mixed well to obtain a drug with 10 μM maximum concentration.
(3) Another new sterile round bottom 96-well plate was used, and 60 μL of each drug with the maximum concentration in step (2) was placed in the first well. 60 μL of solution from the first well was added to the second well with 60 μL 1640 medium, and so forth. Compounds were serially diluted 2-fold to obtain a total of 9 concentrations.
(4) For the blank control group, an equal volume of DMSO was added in the same dilution way.
(5) 10 μL of the solution with gradient drug concentrations prepared as above was added to 90 μL of culture medium in triplicate. For the control group, an equal volume of DMSO solution was added. The cell plate was gently tapped, so that the solution was mixed well. […]

[2] = biological target: T1, Recombinant human-derived ALK (Homo sapiens, UniProt Q9UM73); experiment: Inhibitory activity of compounds against ALK kinase (time-resolved fluorescence resonance energy transfer); assay type: biochemical; conditions: 30 μM ATP, 50 nM ULight-poly GT peptide
T1 construct: BAG10812.1; 1058-1620 (terminal) amino acids; GST (N); made in house
Protocol: The inhibitory activity of the compounds on ALK kinase was detected by time-resolved fluorescence resonance energy transfer method, that is, the ratio of fluorescence signals at 665 nm/615 nm was used to represent the activity of the enzyme.
Assay buffer solution: 50 mM 2-[4-(2-hydroxyethyl)-1-piperazinyl]ethanesulfonic acid buffer solution (HEPES) (pH 7.5), 10 mM MgCl2, 1 mM EDTA 0.01%, polyoxyethylene lauryl ether (Brij 35), 2 mM dithiothreitol (DTT).
Enzyme: Recombinant human-derived ALK (gene accession number: BAG10812.1; 1058-1620 (terminal) amino acids) was expressed with a N-terminal GST fusion protein (90 kDa) using a baculovirus expression system.
Enzyme substrate: 50 nM ULight-poly GT polypeptide.
Detection: europium-labeled anti-phosphotyrosine (PT66) antibody.
1. Compounds dissolved in 100% DMSO were added to 384-well plates by acoustic technique; 2. Recombinant human-derived ALK enzyme and enzyme substrate (50 nM ULight-poly GT peptide) or zymolyte (30 μM ATP) were dissolved in freshly prepared assay buffer; 3. The above ALK enzyme and enzyme substrate in the buffer solution were transferred to reaction wells; 4. Then, the zymolyte in the buffer solution was added to the above reaction wells to initiate the reaction; 5. The plate was incubated at room temperature for 1 hour; 6. The detection mixture (PT66 antibody and EDTA) was added to terminate the reaction, and the mixture was incubated at room temperature for 60 minutes; 7. Then, the plate was read using a microplate reader to obtain the ratio of fluorescence signals at 665 nm/615 nm.
Data analysis: Emission ratio (665 nm/615 nm) in the original data was involved in the calculation of the inhibition rate. The concentration and inhibition rate were analyzed using XLfit software 205 mode (4 Parameters Logistic Model) to obtain IC50 value and curve.

[3] = tested on: human lung cancer cell NCI-H2228; experiment: Anti-proliferative effect in human lung cancer cell NCI-H2228 (CellTiter-Glo); assay type: cell-based; conditions: NCI-H2228, 72 h, cell proliferation, cultured for 3 days
Protocol: In this assay, the inhibitory effect of assay compounds on cell proliferation was assayed in human lung cancer cell NCI-H2228.
as §1, §2
(1). Cells were stained with trypan blue and viable cells were counted; (2). The cell concentration was adjusted to an appropriate concentration;
(3). 90 μL of cell suspension was added to each well of the culture plate as shown in the table above, and cell-free culture medium was added to the blank control well; (4). The plate was incubated in an incubator at 37° C., 5% CO2, and 100% relative humidity overnight.
Preparation of a mother solution storage plate with 400 times the starting compound concentration: the compounds were diluted serially with DMSO from the highest concentration to the lowest concentration. The plate was prepared freshly every time it was used.
(1). 78 μL of cell culture medium was added to a 96-well plate with a V-shaped bottom. […]
(1). […] The culture plate was left at room temperature for 10 minutes to stabilize the luminescence signal; (9). The luminescent signal was detected on a 2104 EnVision plate reader. […]

[4] = tested on: human lung cancer NCI-H2228 cells subcutaneous xenograft tumor; experiment: In vivo pharmacodynamic study in subcutaneous xenograft tumor NOD SCID mouse model of human lung cancer NCI-H2228 cells; set-up: species or system NOD SCID mice; conditions: 50 mg/kg subcutaneous injection once a day
Protocol: Human lung cancer cell NCI-H2228 (ATCC® CRL-5935™) was cultured in vitro in an adherent monolayer in RPMI 1640 medium supplemented with 10% fetal bovine serum, 100 U/mL penicillin and 100 μg/mL streptomycin in an incubator at 37° C. and 5% CO2. Cells were passaged by routine digestion with trypsin-EDTA twice a week. When the cell saturation was 80%-90% and the number met the requirement, the cells are collected, counted, and inoculated.
NOD SCID mice, female, 6-8 weeks old, weighing 18-22 grams.
0.2 mL (10×10^6 cells) of NCI-H2228 cells (with matrigel, v/v 1:1) were subcutaneously inoculated into the right back of each mouse. The administration by group was started when the average tumor volume reached 171 mm^3. One administration cycle comprised seven days, with administration once a day. The assay compounds were administered by subcutaneous injection for a total of four cycles. The subcutaneous injection doses of the assay compounds WX001 and WX002 were both 50 mg/kg. Tumor diameter was measured twice a week with a vernier caliper, and tumor volume was measured in cubic millimeters and calculated by the following formula: V=0.5a×b^2, where a and b are the long and short diameters of the tumor, respectively. The tumor-inhibitory efficacy of the assay compounds was evaluated by using TGI (%). TGI (%) reflects a tumor growth inhibition rate. TGI (%)=[1−(Average tumor volume at the end of administration of a treatment group−Average tumor volume at the beginning of administration of the treatment group)/(Average tumor volume at the end of treatment of a vehicle control group−Average tumor volume at the beginning of treatment of the vehicle control group)]×100%.

T1 sequence (Q9UM73 1058-1620): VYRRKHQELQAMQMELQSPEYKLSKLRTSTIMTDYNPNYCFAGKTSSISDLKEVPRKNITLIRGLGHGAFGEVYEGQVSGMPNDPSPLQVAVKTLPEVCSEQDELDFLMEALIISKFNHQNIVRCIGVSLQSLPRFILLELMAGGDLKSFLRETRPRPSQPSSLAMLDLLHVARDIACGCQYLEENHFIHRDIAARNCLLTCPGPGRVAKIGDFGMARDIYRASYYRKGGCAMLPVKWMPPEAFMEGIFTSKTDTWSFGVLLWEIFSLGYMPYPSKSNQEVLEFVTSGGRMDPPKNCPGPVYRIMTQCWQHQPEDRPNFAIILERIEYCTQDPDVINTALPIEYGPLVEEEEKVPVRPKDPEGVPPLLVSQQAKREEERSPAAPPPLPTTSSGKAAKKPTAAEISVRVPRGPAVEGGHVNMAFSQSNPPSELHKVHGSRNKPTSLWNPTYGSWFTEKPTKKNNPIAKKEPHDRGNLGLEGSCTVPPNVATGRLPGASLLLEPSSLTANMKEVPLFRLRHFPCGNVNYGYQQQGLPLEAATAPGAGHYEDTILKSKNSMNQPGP

| Compound | IC50 [1] [nM] | also measured |
| --- | --- | --- |
| Cc1sc2c(c1C)C(c1ccc(Cl)cc1)=N[C@@H](CC(=O)NCCCOc1ccc3occ(C4CCC(=O)NC4=O)c3c1)c1nnc(C)n1-2 (some centres unmarked) [WX058] | 11.3 |  |
| Cc1sc2c(c1C)C(c1ccc(Cl)cc1)=N[C@@H](CC(=O)NCCCCOc1ccc3occ(C4CCC(=O)NC4=O)c3c1)c1nnc(C)n1-2 (some centres unmarked) [WX060] | 17 |  |
| Cc1cc(Nc2ncc(Cl)c(Nc3ccccc3S(=O)(=O)C(C)C)n2)c(OC(C)C)cc1C1CCN(CC(=O)NCc2ccc3c(ccc4occ(C5CCC(=O)NC5=O)c43)c2)CC1 (centres unmarked) [WX002 hydrochloride] |  | IC50 [2]: 15.6 nM; IC50 [3]: 160 nM; Tumor volume (Day 1) ([4]; Day 1): 172 ± 11 mm^3; TGI (Day 28) ([4]; Day 28): 100.38%; Tumor volume (Day 28) ([4]; Day 28): 169 ± 30 mm^3 |
| Cc1sc2c(c1C)C(c1ccc(Cl)cc1)=N[C@@H](CC(=O)NCCCNC(=O)COc1ccc3occ(C4CCC(=O)NC4=O)c3c1)c1nnc(C)n1-2 (some centres unmarked) [WX042] | 35.4 |  |
| Cc1sc2c(c1C)C(c1ccc(Cl)cc1)=N[C@@H](CC(=O)NCCOc1ccc3occ(C4CCC(=O)NC4=O)c3c1)c1nnc(C)n1-2 (some centres unmarked) [WX059] | 16.6 |  |
| Cc1cc(Nc2ncc(Cl)c(Nc3ccccc3S(=O)(=O)C(C)C)n2)c(OC(C)C)cc1C1CCN(CCOc2ccc3occ(C4CCC(=O)NC4=O)c3c2)CC1 (centres unmarked) [WX006] |  | IC50 [2]: 12.2 nM |
| Cc1cc(Nc2ncc(Cl)c(Nc3ccccc3S(=O)(=O)C(C)C)n2)c(OC(C)C)cc1C1CCN(C(=O)COc2ccc3occ(C4CCC(=O)NC4=O)c3c2)CC1 (centres unmarked) [WX003] |  | IC50 [2]: 33.8 nM |

Further lines, with some results ahead:

| IC50 [1] [nM] | Compound | also measured |
| --- | --- | --- |
| 61.3 | Cc1sc2c(c1C)C(c1ccc(Cl)cc1)=N[C@@H](CC(=O)NCCNc1ccc3c(ccc4occ(C5CCC(=O)NC5=O)c43)c1)c1nnc(C)n1-2 (some centres unmarked) [WX010] |  |
| 51.7 | Cc1sc2c(c1C)C(c1ccc(Cl)cc1)=N[C@@H](CC(=O)NCCCCCCNc1ccc3c(ccc4occ(C5CCC(=O)NC5=O)c43)c1)c1nnc(C)n1-2 (some centres unmarked) [WX009] |  |
| 70.6 | Cc1sc2c(c1C)C(c1ccc(Cl)cc1)=N[C@@H](CC(=O)NCCCCCCOc1ccc3c(ccc4occ(C5CCC(=O)NC5=O)c43)c1)c1nnc(C)n1-2 (some centres unmarked) [WX012] |  |
| 22.5 | Cc1sc2c(c1C)C(c1ccc(Cl)cc1)=N[C@@H](CC(=O)NCCOCCOCCOc1ccc3c(ccc4occ(C5CCC(=O)NC5=O)c43)c1)c1nnc(C)n1-2 (some centres unmarked) [WX008] |  |
| 202 | Cc1sc2c(c1C)C(c1ccc(Cl)cc1)=N[C@@H](CC(=O)NCCOc1ccc3c(ccc4occ(C5CCC(=O)NC5=O)c43)c1)c1nnc(C)n1-2 (some centres unmarked) [WX007] |  |
| 73.8 | Cc1sc2c(c1C)C(c1ccc(Cl)cc1)=N[C@@H](CC(=O)NCCOCCOc1ccc3c(ccc4occ(C5CCC(=O)NC5=O)c43)c1)c1nnc(C)n1-2 (some centres unmarked) [WX011] |  |
